Where two headings read alike, the source gives them in different places.
Target: interaction between the AnxA2 N-terminus and S100A10 (Homo sapiens, UniProt P60903)
Test: Fluorescence screening assay (FRET competitive binding, Cy3-AnxA2(Ac1–14) peptide / Cy5-S100A10)
Conditions: for pIC50 ± SE / IC50: FRET assay, 12 observations; for inhibitory activity (in words): truncation of 35 to 5-methyl derivative, and its side chain extension; for fold loss of activity on truncation of the 4,6-dimethylpyrimidin-2-ylsulfanyl side chain to methyl: relative to parent compound (64 vs 36, 65 vs 46, 66 vs 47)
Method: Assessment of compound activity was performed as described.[35] Briefly, a Cy5-labelled S100A10 tracer was developed and binding of a Cy3-labelled AnxA2(Ac1–14) peptide ligand was assessed using a fluorescence resonance energy transfer readout. Assays were carried out in Nunc black non-treated 384-well plates at 20 °C in 50 μL buffer C. All incubations were performed in quadruplicate. Compounds, peptide and buffer controls were added to the wells in a 10 μL volume in 5% DMSO. Cy5-labelled S100A10 tracer (407 nM) and Cy3-labelled AnxA2(Ac1–14) peptide ligand (1.33 μM) were pre-incubated for 5 min at 20 °C and 40 μL of the preformed complex was then added to the wells and mixed for 10 s to yield a final DMSO concentration of 1%. After 5 min incubation at 20 °C, readings were taken on a Perkin Elmer Envision plate reader by excitation at 488 nm and emission at 695 nm. Fluorescence resonance energy transfer (FRET) was calculated by subtracting the sum of the fluorescence emission of S100A10-Cy5 and AA2(1–14)-Cy3 individually from that measured for the co-incubated partners. Compound binding was calculated as percentage of non-treated control and data were analysed by non-linear regression (dose response—variable slope with bottom and top parameters fixed at 0% and 100%, respectively) using Graphpad Prism Software to determine the IC50 of binding (primary assay).

Chain of interaction between the AnxA2 N-terminus and S100A10 (P60903 whole entry, species assumed): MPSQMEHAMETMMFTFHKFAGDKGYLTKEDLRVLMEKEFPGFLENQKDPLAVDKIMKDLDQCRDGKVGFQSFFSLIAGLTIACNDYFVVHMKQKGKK

pIC50 ± SE (Table 2)	IC50 (Table 2, read-out: IC50) [µM]	pIC50 ± SE (Table 3)	IC50 (Table 3, read-out: IC50) [µM]	Compound	also measured
4.56 ± 0.03	27	–	–	C=CCn1c(CSc2nc(C)cc(C)n2)nnc1SCC(=O)Nc1ccc(C)c(C)c1 [Compound 41, 2-[4-Allyl-5-(4,6-dimethyl-pyrimidin-2-ylsulfanylmethyl)-4H-[1,2,4]triazol-3-ylsulfanyl]-N-(3,4-dimethyl-phenyl)-acetamide]	–
–	–	–	–	Cc1cc(C)nc(SCc2nnc(SCC(=O)Nc3nccs3)n2Cc2ccco2)n1 [Compound 28, 2-[5-(4,6-Dimethyl-pyrimidin-2-ylsulfanylmethyl)-4-furan-2-ylmethyl-4H-[1,2,4]triazol-3-ylsulfanyl]-N-thiazol-2-yl-acetamide]	pIC50 ± SE (Table 1): 3.89 ± 0.06; IC50 (Table 1, read-out: IC50): 129 µM
4.29 ± 0.09	52	–	–	COc1ccc(-n2c(CSc3nc(C)cc(C)n3)nnc2SCC(=O)Nc2ccc(C)c(C)c2)cc1 [Compound 43, N-(3,4-Dimethyl-phenyl)-2-[5-(4,6-dimethyl-pyrimidin-2-ylsulfanylmethyl)-4-(4-methoxy-phenyl)-4H-[1,2,4]triazol-3-ylsulfanyl]-acetamide]	–
–	–	–	–	CCCCn1c(SCC(=O)Nc2cccc(C)n2)nnc1-c1ccco1 [Compound 1d]	IC50 (Table 1, read-out: IC50): 103 µM; IC50 (Table 1, read-out: pIC50 ± SE (converted)): 105 µM
5.14 ± 0.04	7	–	–	COc1ccc(-n2c(CSc3nc(C)cc(C)n3)nnc2SCC(=O)Nc2cc(C(F)(F)F)cc(C(F)(F)F)c2)cc1 [Compound 54, N-(3,5-Bis-trifluoromethyl-phenyl)-2-[5-(4,6-dimethyl-pyrimidin-2-ylsulfanylmethyl)-4-(4-methoxy-phenyl)-4H-[1,2,4]triazol-3-ylsulfanyl]-acetamide]	–
–	–	2.32 ± 0.48	> 1000	Cc1ccc(NC(=O)CSc2nnc(C)n2Cc2ccco2)cc1C [Compound 62, N-(3,4-Dimethyl-phenyl)-2-(4-furan-2-ylmethyl-5-methyl-4H-[1,2,4]triazol-3-ylsulfanyl)-acetamide]	inhibitory activity (in words): complete loss of activity
–	–	4.40 ± 0.03	40	Cc1nnc(SCC(=O)Nc2ccc(C(C)C)cc2)n1Cc1ccco1 [Compound 64, 2-(4-Furan-2-ylmethyl-5-methyl-4H-[1,2,4]triazol-3-ylsulfanyl)-N-(4-isopropyl-phenyl)-acetamide]	fold loss of activity on truncation of the 4,6-dimethylpyrimidin-2-ylsulfanyl side chain to methyl: 10 fold
–	–	3.86 ± 0.11	138	C=CCn1c(C)nnc1SCC(=O)Nc1ccc(C(C)C)cc1 [Compound 65, 2-(4-Allyl-5-methyl-4H-[1,2,4]triazol-3-ylsulfanyl)-N-(4-isopropyl-phenyl)-acetamide]	fold loss of activity on truncation of the 4,6-dimethylpyrimidin-2-ylsulfanyl side chain to methyl: 14 fold
4.65 ± 0.05	22	–	–	COc1ccc(-n2c(CSc3nc(C)cc(C)n3)nnc2SCC(=O)Nc2ccc(Cl)cc2)cc1 [Compound 55, N-(4-Chloro-phenyl)-2-[5-(4,6-dimethyl-pyrimidin-2-ylsulfanylmethyl)-4-(4-methoxy-phenyl)-4H-[1,2,4]triazol-3-ylsulfanyl]-acetamide]	–
5.02 ± 0.04	10	–	–	COCCCn1c(CSc2nc(C)cc(C)n2)nnc1SCC(=O)Nc1ccc(C(F)(F)F)cc1 [Compound 51, 2-[5-(4,6-Dimethyl-pyrimidin-2-ylsulfanylmethyl)-4-(3-methoxy-propyl)-4H-[1,2,4]triazol-3-ylsulfanyl]-N-(4-trifluoromethyl-phenyl)-acetamide]	–
–	–	2.95 ± 0.26	> 1000	Cc1ccc(NC(=O)CCSc2nnc(C)n2Cc2ccco2)cc1C [Compound 63, N-(3,4-Dimethyl-phenyl)-3-(4-furan-2-ylmethyl-5-methyl-4H-[1,2,4]triazol-3-ylsulfanyl)-propionamide]	inhibitory activity (in words): abolished activity
–	–	–	–	Cc1cccc(NC(=O)CSc2nnc(CSc3nc(C)cc(C)n3)n2Cc2ccco2)c1 [Compound 32, 2-[5-(4,6-Dimethyl-pyrimidin-2-ylsulfanylmethyl)-4-furan-2-ylmethyl-4H-[1,2,4]triazol-3-ylsulfanyl]-N-m-tolyl-acetamide]	pIC50 ± SE (Table 1): 4.89 ± 0.04; IC50 (Table 1, read-out: IC50): 13 µM
